Laboratory results: patent publication US6890886B2, “Agricultural compositions employing organosiloxanes containing polyhydric groups” (General Electric Company, priority 2000, dated 2005)

Tests used:
[1] = Aqueous surface tension (Cahn microbalance, sand blasted platinum blade); type: physicochemical; conditions: 0.1 wt % in 0.005M NaCl water (deionized), 25° C.
Protocol: Surface tension was measured using a Cahn microbalance, with a sand blasted platinum blade as the sensor. Solutions of the various components were prepared at 0.1 wt % in 0.005M NaCl water (Deionized), as an equilibrium aid. Aqueous solutions of these unique compositions provide a significant reduction in surface tension relative to conventional surfactants.

[2] = Spreading of a 10 μL droplet of surfactant solution on polyester film; type: physicochemical; conditions: 10 μL droplet on polyester film (3M, IR 1140), after 30 seconds
Protocol: Spreading was determined by applying a 10 μL droplet of surfactant solution to a polyester film (3M, IR 1140 transparency film) and measuring the spread diameter after 30 seconds. The solution was applied with an automatic pipette to provide droplets of reproducible volume. Deionized water that was further purified with a Millipore filtration system was used to prepare the surfactant solutions.

## Me3SiO[MeSi(C3H6O(C2H4O)8H)O]1SiMe3 [SIL-A]
[1]
  Surface Tension (mN/m): 21 mN/m
[2]; 0.1 wt% solution
  Spread Diameter (mm) 0.1 wt%: 44 mm
[2]; 0.2 wt% solution
  Spread Diameter (mm) 0.2 wt%: 42 mm
